Experiment [1] concerns Enterococcus faecium. Kind of experiment: Antibacterial activity against vancomycin resistant Enterococcus faecium VanB clinical isolate assessed as susceptibility level by broth microdilution method. The class given is functional. A general note: In broth dilution the organism is exposed to a series of concentrations in liquid medium.
Experiment [2] deals with Enterococcus faecium. In words: Antibacterial activity against vancomycin resistant Enterococcus faecium VanA clinical isolate assessed as susceptibility level by broth microdilution method. The class given is functional.
The subject of experiment [3] is Enterococcus faecalis. In words: Antibacterial activity against vancomycin resistant Enterococcus faecalis VanB clinical isolate assessed as susceptibility level by broth microdilution method. The class given is functional.
The subject of experiment [4] is Enterococcus faecalis. Kind of experiment: Antibacterial activity against vancomycin resistant Enterococcus faecalis VanA clinical isolate assessed as susceptibility level by broth microdilution method. The class given is functional.
Experiment [5] has as its system Staphylococcus saprophyticus. Kind of experiment: Antibacterial activity against methicillin resistant coagulase-negative Staphylococcus saprophyticus clinical isolate assessed as susceptibility level by broth microdilution method. It is filed as functional.
Experiment [6] is described as follows: Antibacterial activity against methicillin resistant coagulase-negative Staphylococcus hominis subsp. novobiosepticus clinical isolate assessed as susceptibility level by broth microdilution method. It is filed as functional.
Experiment [7] concerns Staphylococcus haemolyticus. In words: Antibacterial activity against methicillin resistant coagulase-negative Staphylococcus haemolyticus clinical isolate assessed as susceptibility level by broth microdilution method. It is filed as functional.
The subject of experiment [8] is Staphylococcus capitis. Kind of experiment: Antibacterial activity against methicillin resistant coagulase-negative Staphylococcus capitis clinical isolate assessed as susceptibility level by broth microdilution method. The class given is functional.
In experiment [9] the test system is Staphylococcus auricularis. Kind of experiment: Antibacterial activity against methicillin resistant coagulase-negative Staphylococcus auricularis clinical isolate assessed as susceptibility level by broth microdilution method. The class given is functional.
The subject of experiment [10] is Staphylococcus epidermidis. In words: Antibacterial activity against methicillin resistant Staphylococcus epidermidis clinical isolate assessed as susceptibility level by broth microdilution method. It is filed as functional.
The subject of experiment [11] is Staphylococcus aureus. Kind of experiment: Antibacterial activity against methicillin resistant Staphylococcus aureus clinical isolate assessed as susceptibility level by broth microdilution method. The class given is functional.
Experiment [12] relates to Enterococcus faecium. Kind of experiment: Antibacterial activity against vancomycin resistant Enterococcus faecium VanB clinical isolate by broth microdilution method. The class given is functional.
For experiment [13], the system named is Enterococcus faecium. Kind of experiment: Antibacterial activity against vancomycin resistant Enterococcus faecium VanA clinical isolate by broth microdilution method. The class given is functional.
Experiment [14] has as its system Enterococcus faecalis. In words: Antibacterial activity against vancomycin resistant Enterococcus faecalis VanB clinical isolate by broth microdilution method. It is filed as functional.
For experiment [15], the system named is Enterococcus faecalis. In words: Antibacterial activity against vancomycin resistant Enterococcus faecalis VanA clinical isolate by broth microdilution method. It is filed as functional.
The subject of experiment [16] is Staphylococcus saprophyticus. Kind of experiment: Antibacterial activity against methicillin resistant coagulase-negative Staphylococcus saprophyticus clinical isolate by broth microdilution method. The class given is functional.
The nature of experiment [17]: Antibacterial activity against methicillin resistant coagulase-negative Staphylococcus hominis subsp. novobiosepticus clinical isolate by broth microdilution method. The class given is functional.
Experiment [18] concerns Staphylococcus haemolyticus. Kind of experiment: Antibacterial activity against methicillin resistant coagulase-negative Staphylococcus haemolyticus clinical isolate by broth microdilution method. It is filed as functional.
Experiment [19] relates to Staphylococcus capitis. In words: Antibacterial activity against methicillin resistant coagulase-negative Staphylococcus capitis clinical isolate by broth microdilution method. It is filed as functional.
The test system of experiment [20] is Staphylococcus auricularis. Kind of experiment: Antibacterial activity against methicillin resistant coagulase-negative Staphylococcus auricularis clinical isolate by broth microdilution method. It is filed as functional.
In experiment [21] the test system is Staphylococcus epidermidis. In words: Antibacterial activity against methicillin resistant Staphylococcus epidermidis clinical isolate by broth microdilution method. The class given is functional.
Experiment [22] deals with Staphylococcus aureus. In words: Antibacterial activity against methicillin resistant Staphylococcus aureus clinical isolate by broth microdilution method. The class given is functional.
Experiment [23] has as its system Enterococcus faecalis.

Converted amounts (≈) assume the structure as drawn. The source made the active and inactive calls. The calls are words filed in the database; no cut-off is given here.

Broadly, the MIC50 is the lowest concentration that inhibits either 50% of growth or 50% of the strains tested, depending on the study. As usually defined, the MIC90 is an inhibitory concentration at the 90% level, which refers to growth in some studies and to a panel of isolates in others. The term MIC denotes the lowest concentration found to suppress growth. Higher therefore signals a need for much substance.

With `CC(=O)N[C@@H]1[C@H](Oc2c3cc4cc2Oc2ccc(cc2Cl)[C@@H](O[C@@H]2O[C@@H](CO)[C@@H](O)[C@H](O)[C@@H]2NC(C)=O)[C@@H]2NC(=O)[C@H](NC(=O)[C@@H]4NC(=O)[C@H]4NC(=O)[C@@H](Cc5ccc(c(Cl)c5)O3)NC(=O)[C@H](N)c3ccc(O)c(c3)Oc3cc(O)cc4c3)c3ccc(O)c(c3)-c3c(O[C@H]4O[C@H](CO)[C@@H](O)[C@@H](O)[C@@H]4O)cc(O)cc3[C@@H](C(=O)O)NC2=O)O[C@@H](CO)[C@@H](O)[C@@H]1O`, the Activity with Enterococcus faecium [1] is given as 100%; in the experiment with Enterococcus faecium [2] it was 0%; in the experiment on Enterococcus faecalis [3] it was 100%; in [5], 88%; in experiment [6], 88%; in [7], 88%. Moreover, the Activity in the experiment with Staphylococcus capitis [8] came to 88%; in experiment [9] it was 88%; in [10], 81%; with Staphylococcus aureus [11], 32%; in the experiment with Staphylococcus aureus [22], 32%. The “Percent of isolates susceptible” value in the experiment on Enterococcus faecalis [4] was determined as 0%. Further, the MIC50 against Enterococcus faecium [12] turned out to be 0.5 µg/mL (≈ 0.283 µM); in the experiment with Enterococcus faecium [13], 64 µg/mL (≈ 36.2 µM); with Enterococcus faecalis [15] it was 64 µg/mL (≈ 36.2 µM); in [16], 4 µg/mL (≈ 2.26 µM); in [17] it was 4 µg/mL (≈ 2.26 µM); in experiment [18] it was 4 µg/mL (≈ 2.26 µM). The MIC50 in the experiment with Staphylococcus capitis [19] amounted to 4 µg/mL (≈ 2.26 µM); in experiment [20] it was 4 µg/mL (≈ 2.26 µM); in experiment [21], 8 µg/mL (≈ 4.53 µM); with Staphylococcus aureus [22] (Staphylococcus aureus), 0.5 µg/mL (≈ 0.283 µM). Also, the MIC90 in the experiment with Enterococcus faecium [12] was 1 µg/mL (≈ 0.566 µM); in the experiment on Enterococcus faecium [13], over 128 µg/mL; in the experiment on Enterococcus faecalis [15], over 128 µg/mL; in experiment [16], 32 µg/mL (≈ 18.1 µM); in experiment [17], 32 µg/mL (≈ 18.1 µM); in experiment [18], 32 µg/mL (≈ 18.1 µM). The MIC90 worked out at 32 µg/mL (≈ 18.1 µM) against Staphylococcus capitis [19], 32 µg/mL (≈ 18.1 µM) in experiment [20], 16 µg/mL (≈ 9.05 µM) in [21] and 1 µg/mL (≈ 0.566 µM) in the experiment with Staphylococcus aureus [22] (Staphylococcus aureus). For the same compound, the MIC against Enterococcus faecalis [14] is 0.5 µg/mL (≈ 0.283 µM). For the same compound, the MIC50 entry in the experiment with Enterococcus faecalis [23] was “inactive”. In addition, in the experiment on Enterococcus faecalis [23], the MIC90 entry is “inactive”.

Take `CC1(C)S[C@@H]2[C@H](NC(=O)[C@H](N)c3ccccc3)C(=O)N2[C@H]1C(=O)O` [AMPICILLIN]: the figures for the Activity in the experiment with Enterococcus faecium [1], in the experiment with Enterococcus faecium [2] and in the experiment with Enterococcus faecalis [3] were 22%, 0% and 60%, respectively. For the same compound, the “Percent of isolates susceptible” value with Enterococcus faecalis [4] is reported as 81%. Also, the MIC50 was 64 µg/mL (≈ 183 µM) in the experiment with Enterococcus faecium [12], 64 µg/mL (≈ 183 µM) in the experiment on Enterococcus faecium [13] and 1 µg/mL (≈ 2.86 µM) against Enterococcus faecalis [15]. Also, the MIC90 with Enterococcus faecium [12] was 64 µg/mL (≈ 183 µM); in the experiment with Enterococcus faecium [13], 128 µg/mL (≈ 366 µM); against Enterococcus faecalis [15], 64 µg/mL (≈ 183 µM). This compound also yielded an MIC against Enterococcus faecalis [14] of at most 0.25 µg/mL. Moreover, in the experiment with Enterococcus faecalis [23], the MIC50 entry was “inactive”. In addition, the MIC90 entry with Enterococcus faecalis [23] is “inactive”.

For the origin of these results see ChEMBL document CHEMBL1275440, “In vitro activity of telavancin against resistant gram-positive bacteria” (2008).
